Measured values reported in patent US20190225650A1, “PEPTIDOMIMETIC MACROCYCLES AND USE THEREOF IN REGULATING HIF1ALPHA” (AILERON THERAPEUTICS, INC., priority 2013, published 2019).
Bridge positions count the residues as written; N and C are the ends. Square brackets hold non-standard residues; d marks the D form. Peptide text beside a SMILES is read from it. R8 = C=CCCCCCC[C@@](C)(N)C(=O)O; S5 = C=CCCC[C@](C)(N)C(=O)O; Nle = CCCC[C@H](N)C(=O)O; Abu = CC[C@H](N)C(=O)O

How the values were obtained:
HRE-bla ME-180 cells [1] = test: Cell proliferation assay (viability, MTT, 1% FBS); type: cell-based, human
Protocol: The human cervical cell line HRE-Bla ME-180 was obtained from Invitrogen. 2×10^4 ME-180 cells were plated in 96-well plates (costar) in Opti-MEM plus 1% FBS (Invitrogen). After 4 hr, cells were pretreated with chetomin, peptide or 0.5% DMSO (final concentration in media) vehicle control for 16 hr under normoxia (21% O2); then incubation continued under normoxia or hypoxia (1% O2) using a hypoxia incubator (Thermo Forma model). Viable cell numbers were quantified using CellTiter 96 Non-Radioactive Cell Proliferation kit (Promega, G4100). The results are presented in the column “Viability 1% FBS AVG (MTT V3-24 hr Normoxia) (μM)” of Table 6.

HRE-bla ME-180 cells [2] = test: Reporter gene assay (HRE-bla ME-180 HIF reporter, GeneBLAzer); type: cell-based, human; conditions: for EC50: 24 hour normoxia
Method in brief: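 A FRET β-lactamase readout of HIF transcription was used. After compound treatment in 0.3% DMSO/media under normoxic conditions, 20 μl of 6× LiveBLAzer-FRET B/G (CCF4-AM) substrate was added. Plates sat 3 hr at room temperature in the dark and were read at 409 Ex/460Em and 409Ex/530Em on a Synergy 2. Inhibition was compared against DMSO vehicle controls, with chetomin as positive control.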

| Structure (SMILES) | EC50 (HRE-bla ME-180 cells [2]) | Viability 1% FBS AVG (MTT V3-24 hr Normoxia) (μM) (HRE-bla ME-180 cells [1]) | 18 h Avg % max inhibition at top conc (HIF Rptr-24 hrs normoxia) (μM) (HRE-bla ME-180 cells [2]) |
| --- | --- | --- | --- |
| CC[C@H](C)[C@H](NC(=O)[C@H](CC(N)=O)NC(=O)[C@@H](NC(=O)[C@H](CCC(N)=O)NC(=O)[C@H](CC(=O)O)NC(=O)[C@H](CC(C)C)NC(=O)[C@H](C)NC(=O)[C@H](CCCNC(=N)N)NC(=O)[C@H](CC(C)C)NC(=O)[C@H](CC(C)C)NC(=O)[C@H](CCC(=O)O)NC(=O)[C@H](CCC(=O)O)NC(=O)CNC(=O)[C@H](CCC(N)=O)NC(=O)[C@H](CC(C)C)NC(=O)[C@H](CC(C)C)NC(C)=O)C(C)C)C(=O)N[C@@H](CC(=O)O)C(=O)N[C@@H](CCC(=O)O)C(=O)N[C@@H](CCC(=O)O)C(=O)N[C@H](C(=O)N[C@@H](CC(C)C)C(=O)N[C@@H](CCSC)C(=O)N[C@@]1(C)CCCC=CCCC[C@@](C)(C(=O)N[C@@H](CCSC)C(N)=O)NC(=O)[C@H]([C@@H](C)CC)NC(=O)[C@H](C(C)C)NC(=O)[C@H](CC(C)C)NC1=O)C(C)C [SP-319] (Ac-LLQGEELLRALDQVNIDEEVLM[S5]LVI[S5]M-NH2; staple 23-27) | > 30 µM | ++++ (≥30: ++++) | + (<10: +) |
| CC[C@@H]1NC(=O)[C@H](CC(=O)O)NC(=O)[C@H](Cc2ccc(O)cc2)NC(=O)[C@@](C)(NC(=O)[C@@H](NC(=O)[C@H](CC(C)C)NC(=O)[C@H](CCC(N)=O)NC(=O)[C@@H]2CCCN2C(=O)[C@H](CC(C)C)NC(=O)[C@H](CCC(=O)O)NC(=O)[C@H](CCCCN)NC(=O)[C@@H](NC(=O)[C@H](CCCNC(=N)N)NC(=O)[C@H](CC(=O)O)NC(=O)[C@H](CC(C)C)NC(=O)CNC(=O)[C@H](CCSC)NC(=O)[C@H](CCC(=O)O)NC(=O)[C@@H](NC(=O)[C@@H](NC(=O)[C@H](CC(C)C)NC(=O)[C@]2(C)CCCC=CCCC[C@](C)(NC(=O)[C@H](CCC(=O)O)NC(=O)[C@H](CC(=O)O)NC(=O)[C@@H](NC(=O)[C@H](Cc3ccccc3)NC(C)=O)[C@@H](C)CC)C(=O)N[C@@H](C(C)C)C(=O)N[C@@H](CC(C)C)C(=O)N[C@@H](CCSC)C(=O)N2)C(C)C)[C@@H](C)CC)[C@@H](C)CC)[C@@H](C)O)CCCC=CCCC[C@@](C)(C(=O)N[C@H](C(=O)N[C@@H](CC(N)=O)C(=O)N[C@@H](C)C(N)=O)C(C)C)NC1=O [SP-322] (Ac-FIDE[S5]VLM[S5]LVIEMGLDRIKELPQLT[S5]YD[Abu][S5]VNA-NH2; staple 5-9, 27-31) | > 30 µM | ++++ (≥30: ++++) | + (<10: +) |
| CCCC[C@H](NC(=O)[C@]1(C)CCCC=CCCC[C@](C)(NC(=O)[C@H](CCCC)NC(=O)[C@H](CC(C)C)NC(=O)[C@@H](NC(=O)[C@H](CCC(=O)O)NC(=O)[C@H](CCC(=O)O)NC(=O)[C@H](CC(=O)O)NC(=O)[C@@H](NC(=O)[C@H](CC(N)=O)NC(=O)[C@@H](NC(=O)[C@]2(C)CCCC=CCCCCCC[C@@](C)(NC(=O)[C@H](CCC(=O)O)NC(=O)[C@H](C)NC(=O)[C@H](CCC(N)=O)NC(=O)[C@H](CC(C)C)NC(=O)[C@H](CC(C)C)NC(C)=O)C(=O)N[C@@H](CC(C)C)C(=O)N[C@@H](CC(C)C)C(=O)N[C@@H](CCCNC(=N)N)C(=O)N[C@@H](C)C(=O)N[C@@H](CC(C)C)C(=O)N[C@@H](CC(=O)O)C(=O)N2)C(C)C)[C@@H](C)CC)C(C)C)C(=O)N[C@@H](CC(C)C)C(=O)N[C@@H](C(C)C)C(=O)N[C@@H]([C@@H](C)CC)C(=O)N1)C(N)=O [SP-350] (Ac-LLQAE[R8]LLRALD[S5]VNIDEEVL[Nle][S5]LVI[S5][Nle]-NH2; staple 6-13, 23-27) | 5 to 15 µM | ++++ (≥30: ++++) | +++ (≤25 but <50: +++) |
| CCCC[C@H](NC(=O)[C@H](CCC(=O)O)NC(=O)[C@@H](NC(=O)[C@@H](NC(=O)[C@H](CC(C)C)NC(=O)[C@]1(C)CCCC=CCCC[C@](C)(NC(=O)[C@H](CCC(=O)O)NC(=O)[C@H](CC(=O)O)NC(=O)[C@@H](NC(=O)[C@H](Cc2ccccc2)NC(C)=O)[C@@H](C)CC)C(=O)N[C@@H](C(C)C)C(=O)N[C@@H](CC(C)C)C(=O)N[C@@H](CCSC)C(=O)N1)C(C)C)[C@@H](C)CC)C(=O)N[C@@H](C)C(=O)N[C@@H](CC(C)C)C(=O)N[C@@H](CC(=O)O)C(=O)N[C@@H](CCCNC(=N)N)C(=O)N[C@H](C(N)=O)[C@@H](C)CC [SP-119] (Ac-FIDE[S5]VLM[S5]LVIE[Nle]ALDRI-NH2; staple 5-9) | > 30 µM | ++++ (≥30: ++++) | +++ (≤25 but <50: +++) |
| CCCC[C@H](NC(=O)[C@H](CC(C)C)NC(=O)[C@@H](NC(=O)[C@H](C)NC(=O)[C@H](CCC(N)=O)NC(=O)[C@H](CC(=O)O)NC(=O)[C@@H](NC(=O)[C@H](Cc1ccccc1)NC(C)=O)[C@@H](C)CC)C(C)C)C(=O)N[C@@]1(C)CCCC=CCCC[C@@](C)(C(=O)N[C@@H](CCCC)C(=O)N[C@@H](C)C(=O)N[C@@H](CC(C)C)C(=O)N[C@@H](CC(N)=O)C(=O)N[C@@H](CCCNC(=N)N)C(=O)N[C@H](C(N)=O)[C@@H](C)CC)NC(=O)[C@H]([C@@H](C)CC)NC(=O)[C@H](C(C)C)NC(=O)[C@H](CC(C)C)NC1=O [SP-273] (Ac-FIDQAVL[Nle][S5]LVI[S5][Nle]ALNRI-NH2; staple 9-13) | > 30 µM | ++++ (≥30: ++++) | +++ (≤25 but <50: +++) |

The next lines start with results.

| EC50 (HRE-bla ME-180 cells [2]) | Structure (SMILES) | Viability 1% FBS AVG (MTT V3-24 hr Normoxia) (μM) (HRE-bla ME-180 cells [1]) | 18 h Avg % max inhibition at top conc (HIF Rptr-24 hrs normoxia) (μM) (HRE-bla ME-180 cells [2]) |
| --- | --- | --- | --- |
| > 30 µM | CCCC[C@H](NC(=O)[C@H](CCC(=O)O)NC(=O)[C@@H](NC(=O)[C@@H](NC(=O)[C@H](CC(C)C)NC(=O)[C@]1(C)CCCC=CCCC[C@](C)(NC(=O)[C@H](CCC(=O)O)NC(=O)[C@H](CC(=O)O)NC(=O)[C@@H](NC(=O)[C@H](Cc2ccccc2)NC(C)=O)[C@@H](C)CC)C(=O)N[C@@H](CO)C(=O)N[C@@H](CC(C)C)C(=O)N[C@@H](CCCC)C(=O)N1)C(C)C)[C@@H](C)CC)C(=O)N[C@@H](C)C(=O)N[C@@H](CC(C)C)C(N)=O [SP-140] (Ac-FIDE[S5]SL[Nle][S5]LVIE[Nle]AL-NH2; staple 5-9) | +++ (≤15 but <30: +++) | +++ (≤25 but <50: +++) |
| > 30 µM | CC[C@H](C)[C@H](NC(=O)[C@H](Cc1ccccc1)NC(C)=O)C(=O)N[C@@H](CC(=O)O)C(=O)N[C@@H](CCC(=O)O)C(=O)N[C@@H](CCC(=O)O)C(=O)N[C@H](C(=O)N[C@@H](CC(C)C)C(=O)N[C@@H](CCSC)C(=O)N[C@@]1(C)CCCC=CCCC[C@@](C)(C(=O)N[C@@H](CCSC)C(=O)N[C@@H](C)C(=O)N[C@@H](CC(C)C)C(=O)N[C@@H](CC(C)C)C(N)=O)NC(=O)[C@H]([C@@H](C)CC)NC(=O)[C@H](C(C)C)NC(=O)[C@H](CC(C)C)NC1=O)C(C)C [SP-229] (Ac-FIDEEVLM[S5]LVI[S5]MALL-NH2; staple 9-13) | ++++ (≥30: ++++) | + (<10: +) |
| > 30 µM | CC[C@H](C)[C@H](NC(=O)[C@H](Cc1ccccc1)NC(C)=O)C(=O)N[C@@H](CC(=O)O)C(=O)N[C@@H](CCC(=O)O)C(=O)N[C@H](C(=O)N[C@H](C(=O)N[C@@H](CC(C)C)C(=O)N[C@@H](CCSC)C(=O)N[C@@]1(C)CCCC=CCCC[C@@](C)(C(=O)N[C@@H](CCSC)C(=O)N[C@@H](C)C(=O)N[C@@H](CC(C)C)C(N)=O)NC(=O)[C@H]([C@@H](C)CC)NC(=O)[C@H](C(C)C)NC(=O)[C@H](CC(C)C)NC1=O)C(C)C)[C@@H](C)O [SP-239] (Ac-FIDETVLM[S5]LVI[S5]MAL-NH2; staple 9-13) | ++++ (≥30: ++++) | ++ (≤10 but <25: ++) |
